These results are taken from the supplement of paper PMC10307832.

Holding throughout (assay): relative viability (nuclei count vs DMSO), 5 days (fraction); higher = more cells survive
Compound in assay [1]: C1=CC=C(C(=C1)C2=CC=C(C=C2)C3=CSC4=C3C(=C(C(=O)N4)C#N)O)O + CC(=O)Nc1cccc(-n2c(=O)n(C3CC3)c(=O)c3c(Nc4ccc(I)cc4F)n(C)c(=O)c(C)c32)c1 [Trametinib] (partner 0.02 µM)
An outline of the steps:
(§1)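 Relative viability divides the nuclei count in treated wells by that in vehicle wells. Lung cancer cell lines were seeded in 1536-well plates, dosed by pin tool the next day, and fixed and stained after 5 days in one step with final 0.05% Triton X-100, 1% formaldehyde and 1 ug/ml Hoechst. Dosing was a single drug or a fixed anchor-drug dose plus five library-drug doses (not always all listed) in √10 steps, and values are medians of duplicate plates imaged at 4×.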

Compound in the assay “TGX 221 + Trametinib”: CC1=CN2C(=O)C=C(N=C2C(=C1)C(C)NC3=CC=CC=C3)N4CCOCC4 [TGX 221] + CC(=O)Nc1cccc(-n2c(=O)n(C3CC3)c(=O)c3c(Nc4ccc(I)cc4F)n(C)c(=O)c(C)c32)c1 [Trametinib] (partner 0.02 µM)
A digest of the protocol: as §1

Compound in the assay “Ricolinostat + AZD7762”: O=C(CCCCCCNC(=O)c1cnc(N(c2ccccc2)c2ccccc2)nc1)NO [Ricolinostat] + NC(=O)Nc1cc(-c2cccc(F)c2)sc1C(=O)N[C@H]1CCCNC1 [AZD7762] (partner 0.2 µM)
A digest of the protocol:
as §1

Compound in the assay “Ricolinostat + Olaparib”: O=C(CCCCCCNC(=O)c1cnc(N(c2ccccc2)c2ccccc2)nc1)NO [Ricolinostat] + O=C(c1cc(Cc2n[nH]c(=O)c3ccccc23)ccc1F)N1CCN(C(=O)C2CC2)CC1 [Olaparib] (partner 8 µM)
A digest of the protocol: as §1

NCI-H2170: the relative viability in assay [1] (first compound 0.08 µM) is 0.87; in assay [1] (first compound 0.253 µM), 0.979; in assay [1] (first compound 0.8 µM) it was 0.865; in assay [1] (first compound 2.53 µM), 0.986; in assay [1] (first compound 8 µM), 0.778; with TGX 221 + Trametinib (first compound 0.08 µM), 0.883. Further, the relative viability turned out to be 0.877 with TGX 221 + Trametinib (first compound 0.253 µM); 0.949 with TGX 221 + Trametinib (first compound 0.8 µM); 0.977 with TGX 221 + Trametinib (first compound 2.53 µM); 0.892 with TGX 221 + Trametinib (first compound 8 µM); 0.815 with Ricolinostat + AZD7762 (first compound 0.08 µM); 0.858 with Ricolinostat + AZD7762 (first compound 0.253 µM). In addition, the relative viability with Ricolinostat + AZD7762 (first compound 0.8 µM) worked out at 1.01; in the assay with Ricolinostat + AZD7762 (first compound 2.53 µM), 0.928; in the assay with Ricolinostat + Olaparib (first compound 0.08 µM) it was 0.569; with Ricolinostat + Olaparib (first compound 0.253 µM) it was 0.507; with Ricolinostat + Olaparib (first compound 0.8 µM), 0.625; in the assay with Ricolinostat + Olaparib (first compound 2.53 µM) it was 0.539.

For the cell line NCI-H1915, the relative viability in assay [1] (first compound 0.08 µM) was 0.304; in assay [1] (first compound 0.253 µM) it was 0.303; in assay [1] (first compound 0.8 µM), 0.505; in assay [1] (first compound 2.53 µM), 0.314; in assay [1] (first compound 8 µM), 0.316; with TGX 221 + Trametinib (first compound 0.08 µM), 0.283. The relative viability with TGX 221 + Trametinib (first compound 0.253 µM) amounted to 0.29; in the assay with TGX 221 + Trametinib (first compound 0.8 µM), 0.29; with TGX 221 + Trametinib (first compound 2.53 µM), 0.274; with TGX 221 + Trametinib (first compound 8 µM), 0.238; in the assay with Ricolinostat + AZD7762 (first compound 0.08 µM), 0.652; with Ricolinostat + AZD7762 (first compound 0.253 µM) it was 0.653. The relative viability with Ricolinostat + AZD7762 (first compound 0.8 µM) worked out at 0.685; with Ricolinostat + AZD7762 (first compound 2.53 µM), 0.573; with Ricolinostat + Olaparib (first compound 0.08 µM) it was 0.255; in the assay with Ricolinostat + Olaparib (first compound 0.253 µM), 0.237; with Ricolinostat + Olaparib (first compound 0.8 µM) it was 0.248; with Ricolinostat + Olaparib (first compound 2.53 µM), 0.201.

In the case of EPLC-272H, the relative viability in assay [1] (first compound 0.08 µM) is 0.269; in assay [1] (first compound 0.8 µM), 0.245; in assay [1] (first compound 2.53 µM), 0.252; in assay [1] (first compound 8 µM) it was 0.289; with TGX 221 + Trametinib (first compound 0.08 µM) it was 0.246; with TGX 221 + Trametinib (first compound 0.253 µM), 0.269. Also, the relative viability with TGX 221 + Trametinib (first compound 0.8 µM) is 0.271; with TGX 221 + Trametinib (first compound 2.53 µM) it was 0.242; with TGX 221 + Trametinib (first compound 8 µM), 0.254; in the assay with Ricolinostat + AZD7762 (first compound 0.253 µM) it was 0.194; with Ricolinostat + AZD7762 (first compound 0.8 µM), 0.178; with Ricolinostat + AZD7762 (first compound 2.53 µM), 0.141. The relative viability came to 0.866 with Ricolinostat + Olaparib (first compound 0.08 µM), 0.938 with Ricolinostat + Olaparib (first compound 0.253 µM), 0.612 with Ricolinostat + Olaparib (first compound 0.8 µM) and 0.309 with Ricolinostat + Olaparib (first compound 2.53 µM).

On to NCI-H2087, for which the relative viability in assay [1] (first compound 0.08 µM) was determined as 0.283; in assay [1] (first compound 0.253 µM), 0.285; in assay [1] (first compound 0.8 µM), 0.206; in assay [1] (first compound 2.53 µM), 0.208; in assay [1] (first compound 8 µM) it was 0.202; with TGX 221 + Trametinib (first compound 0.08 µM) it was 0.168. Further, the relative viability with TGX 221 + Trametinib (first compound 0.253 µM) was 0.155; in the assay with TGX 221 + Trametinib (first compound 0.8 µM) it was 0.211; with TGX 221 + Trametinib (first compound 2.53 µM) it was 0.207; in the assay with TGX 221 + Trametinib (first compound 8 µM), 0.217; in the assay with Ricolinostat + AZD7762 (first compound 0.08 µM), 1.24; with Ricolinostat + AZD7762 (first compound 0.253 µM), 1.27. Also, the relative viability with Ricolinostat + AZD7762 (first compound 0.8 µM) amounted to 1.07; with Ricolinostat + AZD7762 (first compound 2.53 µM) it was 0.973; in the assay with Ricolinostat + Olaparib (first compound 0.08 µM), 0.502; with Ricolinostat + Olaparib (first compound 0.253 µM), 0.588; in the assay with Ricolinostat + Olaparib (first compound 0.8 µM), 0.671; in the assay with Ricolinostat + Olaparib (first compound 2.53 µM), 0.357.

For A-427, the relative viability in assay [1] (first compound 0.08 µM) came out at 0.688; in assay [1] (first compound 0.253 µM), 0.842; in assay [1] (first compound 0.8 µM) it was 0.772; in assay [1] (first compound 2.53 µM) it was 0.746; in assay [1] (first compound 8 µM), 0.858; in the assay with TGX 221 + Trametinib (first compound 0.08 µM), 0.686. Further, the relative viability in the assay with TGX 221 + Trametinib (first compound 0.253 µM) was determined as 0.747; in the assay with TGX 221 + Trametinib (first compound 0.8 µM), 0.771; with TGX 221 + Trametinib (first compound 2.53 µM), 0.627; in the assay with TGX 221 + Trametinib (first compound 8 µM) it was 0.7; with Ricolinostat + AZD7762 (first compound 0.08 µM), 0.606; in the assay with Ricolinostat + AZD7762 (first compound 0.253 µM), 0.708. In addition, the relative viability with Ricolinostat + AZD7762 (first compound 0.8 µM) was determined as 0.518; in the assay with Ricolinostat + AZD7762 (first compound 2.53 µM) it was 0.507; with Ricolinostat + Olaparib (first compound 0.08 µM) it was 0.572; with Ricolinostat + Olaparib (first compound 0.253 µM) it was 0.762; with Ricolinostat + Olaparib (first compound 0.8 µM), 0.586; with Ricolinostat + Olaparib (first compound 2.53 µM), 0.594.

In the case of NCI-H460, the relative viability in assay [1] (first compound 0.08 µM) was found to be 0.0954; in assay [1] (first compound 0.253 µM), 0.101; in assay [1] (first compound 0.8 µM), 0.201; in assay [1] (first compound 2.53 µM), 0.108; in assay [1] (first compound 8 µM), 0.151; with TGX 221 + Trametinib (first compound 0.08 µM), 0.104. The relative viability with TGX 221 + Trametinib (first compound 0.253 µM) worked out at 0.121; in the assay with TGX 221 + Trametinib (first compound 0.8 µM), 0.202; with TGX 221 + Trametinib (first compound 2.53 µM), 0.171; with TGX 221 + Trametinib (first compound 8 µM) it was 0.0976; with Ricolinostat + AZD7762 (first compound 0.08 µM) it was 0.589; with Ricolinostat + AZD7762 (first compound 0.253 µM), 0.582. The relative viability with Ricolinostat + AZD7762 (first compound 0.8 µM) worked out at 0.587; in the assay with Ricolinostat + AZD7762 (first compound 2.53 µM), 0.322; with Ricolinostat + Olaparib (first compound 0.08 µM), 0.362; with Ricolinostat + Olaparib (first compound 0.253 µM), 0.341; in the assay with Ricolinostat + Olaparib (first compound 0.8 µM), 0.377; with Ricolinostat + Olaparib (first compound 2.53 µM), 0.159.

For EBC-1, the relative viability amounted to 0.638 with Ricolinostat + Olaparib (first compound 0.08 µM), 0.618 in the assay with Ricolinostat + Olaparib (first compound 0.253 µM), 0.571 with Ricolinostat + Olaparib (first compound 0.8 µM) and 0.352 with Ricolinostat + Olaparib (first compound 2.53 µM).

As to NCI-H1299, the relative viability with Ricolinostat + Olaparib (first compound 0.08 µM) is 0.95; in the assay with Ricolinostat + Olaparib (first compound 0.253 µM), 0.914; with Ricolinostat + Olaparib (first compound 0.8 µM), 0.942; in the assay with Ricolinostat + Olaparib (first compound 2.53 µM) it was 0.91.

NCI-H1650: the relative viability turned out to be 0.639 in assay [1] (first compound 0.08 µM); 0.495 in assay [1] (first compound 0.253 µM); 0.524 in assay [1] (first compound 0.8 µM); 0.597 in assay [1] (first compound 2.53 µM); 0.42 in assay [1] (first compound 8 µM); 0.456 with TGX 221 + Trametinib (first compound 0.08 µM). In addition, the relative viability with TGX 221 + Trametinib (first compound 0.253 µM) was 0.655; in the assay with TGX 221 + Trametinib (first compound 0.8 µM), 0.669; with TGX 221 + Trametinib (first compound 2.53 µM), 0.596; in the assay with TGX 221 + Trametinib (first compound 8 µM), 0.416; with Ricolinostat + Olaparib (first compound 0.08 µM), 0.767; with Ricolinostat + Olaparib (first compound 0.253 µM), 0.632. For the same cell line, the relative viability in the assay with Ricolinostat + Olaparib (first compound 0.8 µM) was 0.823; with Ricolinostat + Olaparib (first compound 2.53 µM) it was 0.579.
